Patent publication US4945114A, “Therapeutic agents containing enantiomers of propafenone” (priority 1987, dated 1990)
Where a name gives a salt, the structure may show the parent alone.

Legend:
[1] = test system: aconitine-induced arrhythmia; test: Antiarrhythmic action in aconitine-induced arrhythmia of the rat; assay type: in vivo; details: iv, 5 min, read-out: Antiarrhythmic effect on aconitine-induced arrhythmias ED 50%
Protocol: 2. Determination of the antiarrhythmic action in aconitine-induced arrhythmia of the rat
The experimental animals used were male Sprague-Dawley rats weighing from 180 to 300 g. Anaesthesia was effected intraperitoneally with 100 mg/kg of thiobutabarbital. To induce arrhythmias, aconitine was infused at a rate of 5 μg per kg per minute. The test substances were administered intravenously 2 minutes before the beginning of the aconitine infusion. The parameter measured was the duration of the aconitine infusion when the first arrhythmias (loss of P, ventricular extrasystoles and tachycardias) appeared in the ECG of the animals. In untreated animals, the aconitine-induced arrhythmia occurred after 3.3±0.11 minutes (n=120). The ED 50% was determined from the linear relationship between log dose (mg/kg) of the test substances and the relative prolongation of aconitine infusion duration (Δ%).

[2] = biological target: T1, β2-receptor subtype (rat lung membranes, 25% of β1, 75% of β2) (Rattus norvegicus, UniProt P10608); test: Inhibition of specific 3H-dihydroalprenolol binding in rat lung membranes; details: 1 nM 3H-dihydroalprenolol, confidence limits in brackets, read-out: Lung Ki (competition constant)
T1 construct: rat lung membranes; from tissue; host or cells: rat lung membranes
T1 sequence (P10608 whole entry): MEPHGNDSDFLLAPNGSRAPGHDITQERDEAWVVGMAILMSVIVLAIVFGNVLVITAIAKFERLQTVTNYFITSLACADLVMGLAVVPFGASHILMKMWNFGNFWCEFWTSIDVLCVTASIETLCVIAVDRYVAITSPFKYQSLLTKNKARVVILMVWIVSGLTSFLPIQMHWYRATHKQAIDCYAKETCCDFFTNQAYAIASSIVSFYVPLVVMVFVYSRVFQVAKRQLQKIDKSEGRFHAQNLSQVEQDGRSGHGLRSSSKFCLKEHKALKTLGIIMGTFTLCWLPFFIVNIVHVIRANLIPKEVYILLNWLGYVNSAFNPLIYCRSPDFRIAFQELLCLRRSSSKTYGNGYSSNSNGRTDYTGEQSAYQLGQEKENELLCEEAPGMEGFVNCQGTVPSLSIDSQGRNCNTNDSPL
Protocol: Two experiments were carried out with three batches.

Compound | ED50 [1] | Ki [2]
CCCNCC(O)COc1ccccc1C(=O)CCc1ccccc1 (racemic) [(R,S)-propafenone, 2'-(2-hydroxy-3-propylaminopropoxy)-3-phenylpropiophenone, reference compound] | 0.724 mg/kg | 0.032 µM
CCCNC[C@@H](O)COc1ccccc1C(=O)CCc1ccccc1 [(R)-propafenone, (R)-propafenone . HCl] | 0.801 mg/kg | 0.257 µM
CCCNC[C@H](O)COc1ccccc1C(=O)CCc1ccccc1 [(S)-propafenone, (S)-propafenone . HCl] | 0.676 mg/kg | 0.014 µM
